# Measurements as given in publication PMC11511367, “Antiproliferative Effects of Naja anchietae and Naja senegalensis Venom Peptides on Glioblastoma Cell Lines” (Toxins, 2024).
# Bridges are numbered along the chain shown (N, C = ends). Where no end group is shown, it is not given here.
# Experiments:
# Format in all cases: cell-based
# U251 glioblastoma cells = experiment: MTT antiproliferative assay on U251 cells; settings: Brain glioblastoma U251, MTT, 72 h, 1 × 10^−7 to 1 × 10^−4 Molar, OD 570 nm; three-parameter log-logistic fit
# Text: (§1) The purified peptides, named CTNsen1, CTNsen2, CTNsen3, CTNanc1, CTNanc2, and CTNanc3 from Naja senegalensis and Naja anchietae respectively, were subsequently tested for their antiproliferative effects on several glioblastoma cell lines (U87, U251, and T98G) as well as on primary human umbilical vein endothelial cells (HUVECs). A series of increasing concentrations (1 × 10^−⁷, 0.5 × 10^−6, 1 × 10^−⁶, 0.5 × 10^−5, 1 × 10^−⁵, 0.5 × 10^−4, and 1 × 10^−⁴ Molar) were used. The dose-response curves for each peptide are depicted in Figure 9, Figure 10, Figure 11 and Figure 12.
# Figure 10 Antiproliferative activity of CTNsen1 (a), CTNsen2 (b), CTNsen3 (c), CTNanc1 (d), CTNanc2 (e), and CTNanc3 (f) from Naja senegalensis and Naja anchietae respectively. […] The OD was measured at 570 nm.
# (§2) U87 and T98G were plated at a density of 4000 cells per well and U251 cells at a density of 2500 cells per well in microtiter plates and allowed to adhere overnight at 37 °C in a 5% CO2 humidified environment. The following day, the medium was replaced with fresh medium containing our venom peptides under investigation. After a 72-h incubation period, cells were treated with MTT (Promega, Lyon, France) at a concentration of 0.5 mg/mL. […] Viable cells were then quantified by measuring the absorbance at 570 nm. […] Model calibration was assessed using the drm() function. […]
# T98G glioblastoma cells = experiment: MTT antiproliferative assay on T98G cells; settings: Brain glioblastoma T98G, 72 h, 1 × 10^−7 to 1 × 10^−4 Molar, OD 570 nm, three-parameter log-logistic fit
# Text: as §1
# Figure 11 Antiproliferative activity of CTNsen1 (a), CTNsen2 (b), CTNsen3 (c), CTNanc1 (d), CTNanc2 (e), and CTNanc3 (f) from Naja senegalensis and Naja anchietae, respectively. […] The OD was measured at 570 nm.
# as §2
# MCF-7 cells = experiment: MTT antiproliferative assay on MCF-7 cells (venom screening and isolated peptides); settings: MCF7 cells, 72 h, 4 µg and 20 µg of peptide
# Description: We screened nearly 40 different animal venoms to evaluate their potential anticancer properties. The venoms were solubilized at a concentration of 1.5 mg/mL in water. The antiproliferative activity of these venoms was tested at two concentrations, 3 µg and 15 µg, against MCF-7 cells (Appendix A, Figure A1).
# Figure A1 Antiproliferative activity of different animal venoms. […] The OD was measured at 570 nm after 72 h of treatment. The abbreviations include Na: Naja anchietae; Vg: Viridovipera gumprechti; Vk: Vipera kaznakovi; Tv: Trimeresurus vogeli; Tt: Trimeresurus trigonocephalus; Ach: Atheris chlorechis; Ath ni: Atheris nitschei nitschei; Nox: Naja oxiana; Np: Naja philippinensis; At sq: Atheris squamigera; Nhl: Naja haje legionis; Por Oph: Porthidium ophryomegas; Ph: Parias hageni; Ns: Naja senegalensis.
# Figure A2 Antiproliferative activity of CTNsen1, CTNsen2, CTNsen3, CTNanc1, CTNanc2, and CTNanc3 from Naja senegalensis (b) and Naja anchietae (a), respectively. […] Na and Ns here were used as a positive control at two concentrations (3 µg and 15 µg). The OD was measured at 570 nm.
sequence,measurement,setting,value
"LKCHQLVPPFWKTCPEGKNLCYKMYMVSSSTVPVKRGCIDVCPKNSALVKYVCCNTDKCN (disulfide 3-21, 14-38, 42-53, 54-59) [CTNsen1]","IC50 (μg/mL), U251",U251 glioblastoma cells,Inactive
same,"IC50 (μg/mL), T98G",T98G glioblastoma cells,Inactive
same,Antiproliferative activity of isolated peptides,MCF-7 cells,activity was confirmed
